In patent US20250325548A1, “TUMOR SUPPRESSOR P73 TRANSCRIPTIONALLY REGULATES C-FLIP TO IMPEDE ITS PRIMING OF EXTRINSIC APOPTOSIS WHILE AN EXAMPLE SWITCHER COMPOUND CB-7587351 DEGRADES C-FLIP PROTEIN” (Brown University, priority 2024, published 2025):
Where a SMILES comes first, the peptide text is derived from it. The star is where a group is joined. Cbz = O=C(OCc1ccccc1)*; CH2F = FC*

Key:
PARP = experiment: Western blot of cleaved PARP with TRAIL combination; assay type: cell-based, human; details: cancer cells
Procedure: (§1) Western Blot analysis: An equal amount of protein in the cell lysate was loaded in each well and electrophoresed through 4-12% SDS-PAGE then transferred to a PVDF membrane. The primary antibodies indicated in the FIGs. were incubated with the PVDF membrane after transfer in blocking buffer at 4° C. overnight. Antibody binding was detected on PVDF with appropriate IR Dye-secondary antibodies (LI-COR Biosciences, USA) by the ODYSSEY infrared imaging system or with ECL Reagent (Thermo Fisher Scientific, catalog no. 32106) chemiluminescence reaction with appropriate horseradish peroxidase (HRP)-conjugated secondary antibodies (Thermo Fisher Scientific, catalog no. no. 31460 for Goad anti-rabbit IgG and catalog no. 31430 for Goat anti-mouse IgG) by the Syngene imaging system.

normal cells = experiment: Cell viability and synergy assay with TRAIL in normal cells; assay type: cell-based; details: tested doses
Procedure: (§2) CellTiter-Glo luminescent Cell viability assay: Cells were seeded on 96-well plates with a density of 3000 cells/well and treated with small molecule compounds as desired for 72 hours. Cell viability was measured by CellTiter-Glo bioluminescence (Promega, catalog no. G7572), and analyzed using an IVIS imager.
(§3) Statistical analysis: Statistical analyses were performed using the student's t-test or Anova with GraphPad Prism software. Statistical significance was determined by p<0.05. Combination indices were calculated using the Chou-Talalay method with CompuSyn software.

p53 targets = experiment: Western blot of endogenous p53 targets; assay type: cell-based, human
Procedure: as §1

cancer cells [1] = experiment: Cell viability and synergy assay with TRAIL in cancer cells; assay type: cell-based, human; details: tested doses
Procedure: as §2, §3

c-FLIP [2] = experiment: Real-time PCR of c-FLIP mRNA in cancer cells; assay type: cell-based, human; details: cancer cells treated with CB-7587351, Real-time PCR
DNA = experiment: DNA-intercalation test; details: not shown
γ-H2AX = γ-H2AX phosphorylation (DNA damage) in SW480 cells; assay type: cell-based, human
cancer cells [3] = experiment: Sub-G1 flow cytometric assay in cancer cells; assay type: cell-based, human
Procedure: Flow Cytometry Assay: Briefly, cells were fixed with 70% ethanol, and stained with Propidium Iodide (PI), then subjected for CytoFLEX to measure DNA content of the PI-stained cells. Cell cycle distribution was analyzed with Flowjo.

[4] = tested on: panel of cancer cell lines; experiment: CellTiter-Glo cell viability, panel of cancer cell lines versus MRC-5; assay type: cell-based, human; details: cancer cells compared with normal fibroblast MRC-5 cells, 48 hr
Procedure: […] Cell viability was measured by CellTiter-Glo bioluminescence (Promega, catalog no. G7572), and analyzed using an IVIS imager.

p53 reporter, PG13-luc = experiment: PG13-luc p53-reporter bioluminescence assay; assay type: cell-based, human
Procedure: Materials and Methods; High-Throughput Screening: Functional cell-based screening for small molecules that increase p53-transcriptional activity was performed as described in the previous study using noninvasive bioluminescence imaging in human colorectal cancer cells which stably express a p53 reporter, PG13-luc. […] DMSO treatment was used as a negative control in each screened plate. Compounds that increased p53-responsive bioluminescence were selected for secondary screening.

p53 target genes = experiment: Real-time RT-PCR of p53 target genes; assay type: cell-based, human; details: SW480 cells, 3 hr, normalized to GAPDH
colorectal cancer cells = experiment: Colony formation assay; assay type: cell-based, human
c-FLIP [5] = experiment: Western blot of c-FLIP protein levels in cancer cells; assay type: cell-based, human
Procedure: as §1

caspase-3 = experiment: Western blot of cleaved caspase-3; assay type: cell-based, human; details: cancer cells, early time points
Procedure: as §1

caspase-3/7 = experiment: Caspase-3/7 activity assay; assay type: cell-based, human; details: DLD-1 cancer cells, 36 hours
p53-mutant cancer cells = experiment: Apoptosis by PARP cleavage and Annexin V after caspase knockdown; assay type: cell-based, human; details: CB-7587351 at 10 μM
Procedure: Annexin V levels were measured using RealTime-Glo™ Annexin V assay kit (Promega). The bioluminescent Annexin V was analyzed using an IVIS imager.
as §1
Knockdown of gene expression by siRNA: Cells were transfected with siRNA using lipofectamine RNAiMAX (Life Technologies, catalog no. 13778075) as described in the protocol from the manufacturer.

p73 = biological target: T1, p73 (Homo sapiens, UniProt O15350); details: via releasing it from the inhibitory complex of mutant p53; cited from earlier work
T1 sequence (O15350 1-636): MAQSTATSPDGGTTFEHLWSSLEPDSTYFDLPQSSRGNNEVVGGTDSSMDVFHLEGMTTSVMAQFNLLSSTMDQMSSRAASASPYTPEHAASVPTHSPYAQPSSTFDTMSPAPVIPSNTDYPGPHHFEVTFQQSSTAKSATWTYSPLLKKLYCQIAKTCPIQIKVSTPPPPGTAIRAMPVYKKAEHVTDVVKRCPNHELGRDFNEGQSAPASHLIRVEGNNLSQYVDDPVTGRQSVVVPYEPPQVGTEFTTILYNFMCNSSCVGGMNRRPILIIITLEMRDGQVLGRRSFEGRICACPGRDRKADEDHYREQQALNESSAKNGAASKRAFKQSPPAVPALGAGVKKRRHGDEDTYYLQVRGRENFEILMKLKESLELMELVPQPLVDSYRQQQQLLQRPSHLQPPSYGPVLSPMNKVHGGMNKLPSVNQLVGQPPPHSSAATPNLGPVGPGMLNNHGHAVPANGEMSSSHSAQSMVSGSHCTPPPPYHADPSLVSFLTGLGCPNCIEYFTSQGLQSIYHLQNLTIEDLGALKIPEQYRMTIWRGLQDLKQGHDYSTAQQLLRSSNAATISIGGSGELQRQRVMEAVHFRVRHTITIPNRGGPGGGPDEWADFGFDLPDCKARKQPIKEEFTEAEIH

CCOc1cccc2c(C)nc(Nc3nc(=O)c4c([nH]3)CCCC4)nc12 [CB-7587351, 2-(8-Ethoxy-4-methyl-2-quinazolinylamino)-5,6,7,8-tetrahydro-4 (1H)-quinazolinone]
TRAIL-induced PARP cleavage (PARP): enhanced TRAIL-induced PARP cleavage | synergy with TRAIL on cell viability (normal cells): not in normal cells | p21 and puma expression after knockdown of p73 (p53 targets; DLD-1 cells, 8 hr): blocked the activation effect | endogenous p53 targets at the protein level (p53 targets; p53-mutant and wild colorectal cancer cell lines, 16 hr): increased | synergy with TRAIL on cell viability (cancer cells [1]): synergized with TRAIL | c-FLIP expression at the mRNA level (c-FLIP [2]): no significant changes | DNA-intercalation (DNA): no DNA-intercalation was detected | phosphorylation of γ-H2AX (γ-H2AX; SW480 cells, increased dose, early time points): No phosphorylation | genotoxicity (γ-H2AX; conclusion from γ-H2AX and DNA-intercalation): little or no genotoxicity | sub-G1 content and Annexin V levels with overexpression of p73 (cancer cells [3]; Ad-p73 infection, 48 hr (sub-G1), 24 hours (Annexin)): enhanced the anti-tumor effect | sub-G1 content and PARP cleavage after knockdown of p73 (cancer cells [3]; DLD-1 cells, 72 hr (sub-G1), 48 h (PARP)): abrogated the effect | sub-G1 content (cancer cells [3]; cancer cells, 48 hr): increase in sub-G1 content | IC50s, cell viability [4]: much lower in cancer cells than those in normal fibroblast MRC-5 cells | p53-responsive bioluminescence (p53 reporter, PG13-luc; SW480, DLD1, HCT116 p53-/- and HCT116, dose dependent): strongly induced | effect on PG13-luc reporter with overexpression of p73-β or wild-type p53 (p53 reporter, PG13-luc; adenovirus infection, then CB-7587351 16 hr): further enhanced | PG-13-luciferase reporter after siRNA targeting p73 (p53 reporter, PG13-luc; p53-KO cancer cells): attenuated | selected p53 targets at the mRNA level (p53 target genes): slight increase | colony formation (colorectal cancer cells): dramatically reduced | c-FLIP degradation after knockdown of CHIP or ITCH (c-FLIP [5]; SW480, siRNA 48 hr then CB-7587351 8 hr): could not rescue c-FLIP | p73-mediated upregulation of c-FLIP protein (c-FLIP [5]; SW480 cells with overexpression of p73, treatment 8 hr): reduced p73-mediated upregulation of c-FLIP protein | c-FLIP protein expression (c-FLIP [5]; p53-mutant and p53 wild-type cancer cells, Western blot): reduced c-FLIP protein expression | cleaved caspase-3 (caspase-3): increase | caspase-3/7 activity (caspase-3/7): increase | apoptosis (PARP cleavage, Annexin V) after knockdown of caspase-8 (p53-mutant cancer cells): prevented apoptosis

CC(C)C[C@@H](C=O)NC(=O)[C@H](CC(C)C)NC(=O)[C@H](CC(C)C)NC(=O)OCc1ccccc1 [MG132, reference compound] (Cbz-Leu-Leu-Leu-aldehyde)
c-FLIP protein under CB-7587351 plus proteasome inhibitor (c-FLIP [5]; cancer cells co-treated with MG132 and CB-7587351): rescued c-FLIP from the CB-7587351-induced protein degradation

CN1CCN(C(=O)/C=C/c2ccc([N+](=O)[O-])o2)CC1 [NSC59984, (E)-1-(4-Methyl-1-piperazinyl)-3-(5-nitro-2-furyl)-2-propen-1-one]
activation of p73 (p73): activate p73

O=C(CSC1=NCCS1)c1ccc(O)c(O)c1 [RETRA, 2-(4,5-Dihydro-1,3-thiazol-2-ylthio)-1-(3,4-dihydroxyphenyl)-1-ethanone]
activation of p73 (p73): activate p73

COC(=O)C[C@H](NC(=O)[C@H](C)NC(=O)[C@@H](NC(=O)OCc1ccccc1)C(C)C)C(=O)CF [z-VAD-FMK, reference compound] (Cbz-Val-Ala-Asp(OMe)-CH2F)
CB-7587351-induced apoptosis with pan-caspase inhibitor (sub-G1 assay) (cancer cells [3]; SW480, HT29, HCT116 p53-/- and HCT116): blocked the effect of CB-7587351 on apoptosis
